Data published in patent publication US8283370B2, “Imidazolidinedione derivatives as antimalarial agents, preparation thereof, and methods of use” (The United States of America as Represented by the …, priority 2008, dated 2012).
“And” between values parts separate entries of the source, which are not always exact repeats. Identical values can stand only once.

Columns and labels:
Assay type in all cases: in vivo
[1] = tested on: P. cynomolgi liver stage hypnozoites; test: Radical cure test in relapsed Rhesus monkeys
Procedure: Monkeys were treated with chloroquine (10 mg/kg/day) by oral for 7 consecutive days and the test compounds by IM for 3 consecutive days after the parasitemia level reached 5,000 parasites/mm^3. Chloroquine (CQ) at 10 mg/kg/day×7 days eliminates the blood stage parasites, but not the liver stage hypnozoites. Compounds with antihypnozoite activity will delay the relapse or radically cure the infection. To evaluate the radical curative properties, daily blood samples were followed for 21 days, 3 times per week for 4 weeks, and then 2 times weekly until 100 days after the last day of test compound administration. Parasite clearance should occur in all animals treated with chloroquine. Relapse is expected in the control group. Relapse in the treated group indicates failure of the test compounds. […] Relapses of the control monkeys were treated with chloroquine once daily for 7-days and observed for a second relapse. Relapse in experimental animals and the second relapse of the control monkeys were treated with the standard 7-day oral CQ (chloroquine) and primaquine (1.78 mg base/kg). After standard treatment, blood smears were monitored daily for 4 consecutive days of negative results and 2 times weekly for 2 weeks.

P. berghei sporozoites = test: Causal prophylactic activity, exoerythrocytic (EE) mouse model, P. berghei sporozoites; conditions: 3 days treated
Procedure: (§1) New compounds were assessed for their causal prophylactic activity in two different exoerythrocytic (EE) mouse models using sporozoites of either P. berghei or P. yoelii. The procedures have been previously described (see, for example, Q. Zhang et al., J. Med. Chem. 48 (20): 6472-6481 (2005)). Briefly, each compound was ground with a mortar and pestle and suspended in hydroxyethylcellulose and Tween 80 for compounds to be administered PO and those given SC were suspended in peanut oil. Each compound was prepared at different dose levels. Compounds were administered either PO or SC to mice once a day for three consecutive days, to mice on the day before, 4 hours before, and the day after being inoculated intraperitoneally with P. yoelii sporozoites or P. berghei sporozoites intravenously. Whole body weights were taken on Day 0 and Day 6 then approximately twice a week for 31 days. A blood film was taken on Day 5 and then approximately twice a week for 31 days. Mice losing greater than about 20% of their body weight were sacrificed. A compound was considered active if only low levels of parasites were found (less than about 10%) in blood films taken on Day 5 or any biweekly for 31 days. Mice alive on Day 31 with no parasites found in any blood films were considered protected.

P. cynomolgi sporozoites = test: Causal prophylactic test in P. cynomolgi sporozoites challenged Rhesus monkeys; conditions: for Causal prophylactic activity in Rhesus test (in words): 30 mg/kg/day for 3 days by IM; for Patency (Days Post-innoculation): one value per monkey, 30 mg/kg 1 daily for 3 days, IM (days -1, 0, +1), 30 mg/kg
Procedure: Among the new compounds prepared, representative compounds 5e, 6c, 7a and 7c were assessed for causal prophylactic and radical cure activities in Rhesus monkeys. To protect the Rhesus monkeys, a test compound must pass a mouse toxicity test at 300 mg/kg/day for 3 consecutive days by SC administration, and mice must not lose more than 5% body weight within 30 days after receiving the test compound.
The causal prophylactic and radical curative antimalarial activity of the new derivatives 5e, 6c, 7a and 7c were assessed in a P. cynomolgi sporozoites challenged Rhesus monkey model. Detailed procedure of sporozoites harvest and drug tests have been described previously (J. Guan et al., Bioorg. Med. Chem. 23, 699-704 (2005); Q. Zhang et al., J. Med. Chem. 48 (20): 6472-6481 (2005)) Briefly, monkeys were randomized to control groups and experimental groups. A donor monkey was inoculated intravenously with 1.3 mL freshly-thawed frozen infected red blood cells (DA310). When the donor monkey developed gametocytemia, mosquito feedings were conducted on days 13 and 14 after inoculation. The donor monkey was treated with intramuscular chloroquine hydrochloride (CQ) 10 mg/kg, once a day after the second mosquito feeding and continued for 7 days. On day 0 (beginning of assay), each of the monkeys was inoculated intravenously with 1-ml inoculum of suspension containing about 1.0×10^6 (one million) P. cynomolgi sporozoites harvested from Anopheles dirus mosquitoes' salivary glands previously fed on the donor monkey (See, for example, Corcoran, K D, et al. (1993) Am. J. Trop. Med. Hyg. 49:473 477, and Shanks, G D, et al. (2001) Clinical Infectious Diseases 33:1968 1974). All monkeys received treatment on days −1, 0 and 1. The control monkeys received dimethylsulfoxide (DMSO) and the experimental animals received testing compound intramusculary. After the assay, all monkeys were given standard malarial treatment. Specifically, seven-day primaquine (1.78 mg/kg) and chloroquine (10 mg/kg) were administered to treat all monkeys.

P. yoelii sporozoites = test: Causal prophylactic activity, exoerythrocytic (EE) mouse model, P. yoelii sporozoites; conditions: for P. yoelli # Mice Protected/# Mice Used: 3 days treated; for Causal prophylactic protection in mice (comparison in words): Table 5, compared to control compound 3 or between P. yoelii and P. berghei
Procedure: as §1

[2] = one value per monkey, 30 mg/kg 1 daily for 3 days IM with CQ 10 mg/kg x7 po

| Structure (SMILES) | Delayed relapse, Days Post-treatment [1, 2] | P. berghei # Mice Protected/# Mice Used (P. berghei sporozoites; Dose/day 40 mg/kg) | P. berghei # Mice Protected/# Mice Used (P. berghei sporozoites; Dose/day 160 mg/kg) | Causal prophylactic activity in Rhesus test (in words) (P. cynomolgi sporozoites) | Patency (Days Post-innoculation) (P. cynomolgi sporozoites) | P. yoelli # Mice Protected/# Mice Used (P. yoelii sporozoites; Dose/day 10 mg/kg) | P. yoelli # Mice Protected/# Mice Used (P. yoelii sporozoites; Dose/day 40 mg/kg) | P. yoelli # Mice Protected/# Mice Used (P. yoelii sporozoites; Dose/day 160 mg/kg) | further results |
| --- | --- | --- | --- | --- | --- | --- | --- | --- | --- |
| CC(C)N1C(=O)C(=O)N=C1N=C(NOCc1ccccc1)Nc1ccc(Cl)c(Cl)c1 [Compound 5e] | 35 days and 33 days | 0/5 | 0/5 | about equal in causal prophylactic activity to 7c | 27 days and 29 days | – | – | – | – |
| CC(C)NC(=NC1=NC(=O)C(=O)N1C(C)C)Nc1ccc(Cl)c(Cl)c1 [Compound 6c] | 66 days and 91 days | 0/5 | 1/5 | most potent causal prophylactic activity | 62 days and 94 days | – | – | – | Radical curative efficacy (in words) ([1]; test compound IM for 3 days with CQ po for 7 days): more active than 5e, 7a and 7c |
| CC(C)N1C(=O)C(=O)N=C1N=C(NC(=O)C(C)(C)C)Nc1ccc(Cl)c(Cl)c1 [Compound 7c] | – | – | – | superior protective activity than that of 7a | 21 days and 40 days | – | – | – | Delayed relapse, days longer as compared with control animals ([1]; 40 mg/kg 1 daily for 3 days IM with CQ 10 mg/kg x7 po): 20 days and 23 days; Delayed relapse, Days Post-treatment ([1]; one value per monkey, 40 mg/kg 1 daily for 3 days IM with CQ 10 mg/kg x7 po): 29 days and 32 days |
| CC(C)N1C(=O)C(=O)N=C1N=C(Nc1ccccc1)Nc1ccc(Cl)c(Cl)c1 [Compound 6f] | – | 0/5 | 0/5 | – | – | 5/5 | 5/5 | 5/5 | Causal prophylactic protection in mice (comparison in words) (P. yoelii sporozoites): enhanced protection |
| CCN(CC)CCCC(C)Nc1ccnc2cc(Cl)ccc12 (centres unmarked) [CQ, chloroquine, reference compound] | – | – | – | – | – | – | – | – | Relapse, Days Post-treatment ([1]; one value per monkey, CQ 10 mg/kg x7 po alone (Drug 2 none)): 9 days |
| CC(C)N1C(=O)C(=O)N=C1/N=C(\NC(=O)OC(C)(C)C)Nc1ccc(Cl)c(Cl)c1 [Compound 3, reference compound] | – | 2/10 | 4/10 | – | – | 3/5 | 2/5 | 4/5 | – |
| CC(C)N1C(=O)C(=O)N=C1N=C(NCC(C)(C)C)Nc1ccc(Cl)c(Cl)c1 [Compound 6e] | – | 0/5 | 1/5 | – | – | 5/5 | 5/5 | 5/5 | Causal prophylactic protection in mice (comparison in words) (P. yoelii sporozoites): enhanced protection |
| CCC(CC)C(=O)NC(=NC1=NC(=O)C(=O)N1C(C)C)Nc1ccc(Cl)c(Cl)c1 [Compound 7a] | 16 days | – | – | weak causal prophylactic activity | 13 days and 17 days | – | – | – | Delayed relapse, days longer as compared with control animals ([1]; 30 mg/kg 1 daily for 3 days IM with CQ 10 mg/kg x7 po): 7 days; Results (radical cure, in words) ([1]; 30 mg/kg 1 daily for 3 days IM with CQ 10 mg/kg x7 po, no relapse after 100 days = radically cured): One out of two monkeys treated with 7a was cured and Cure |
